Reference: US20110015181A1, “ALKYLAMINOPYRIDINE DERIVATIVE” (priority 2008, published 2011)

Experiments:
human ERG (hERG) = human ERG (hERG) (Homo sapiens, UniProt Q12809); assay: Affinity for human ERG (hERG); type: binding
Method: In addition, the affinities of compounds according to the present invention and compounds described in Patent Document 7 described above for human ERG (hERG) were examined. This examination method was carried out according to the method described in documents (for example, Japanese Unexamined Patent Application Publication No. 2004-512268).

human NPY Y1 receptor = molecular target: T1, human NPY Y1 receptor (Homo sapiens, UniProt P25929); assay: NPY binding inhibition test ([125I] peptide YY binding to membranes of NPY Y1 receptor expression cells); settings: membrane of CHO-K1 cells expressing human NPY Y1 receptor, 25° C., 2 hours; read-out: IC50 against specific [125I] peptide YY binding
T1 construct: expressed in transfected cells; host or cells: CHO-K1 NFAT β-Lactamase (Aurora)
T1 sequence (P25929 1-384): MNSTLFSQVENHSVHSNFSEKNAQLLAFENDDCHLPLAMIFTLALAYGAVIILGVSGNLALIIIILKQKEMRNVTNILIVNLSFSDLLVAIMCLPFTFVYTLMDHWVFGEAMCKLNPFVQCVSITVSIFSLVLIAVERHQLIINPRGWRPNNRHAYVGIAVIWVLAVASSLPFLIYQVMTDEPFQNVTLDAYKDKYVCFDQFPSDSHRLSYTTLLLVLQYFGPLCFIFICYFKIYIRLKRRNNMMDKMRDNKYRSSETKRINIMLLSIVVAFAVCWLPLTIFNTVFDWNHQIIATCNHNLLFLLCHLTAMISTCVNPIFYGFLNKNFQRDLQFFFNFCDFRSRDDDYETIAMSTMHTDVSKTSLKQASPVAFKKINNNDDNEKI
Method: A cDNA sequence encoding a human NPY Y1 receptor [Accession No. L07615] was cloned into expression vectors pEF1x (made by Invitrogen Inc.). The obtained expression vectors were transfected to host cells CHO-K1 NFAT β-Lactamase (Aurora) by cationic lipid method [see Proceedings of the National Academy of Sciences of the United States of America, 84: 7413 (1987)] to give NPY Y1 receptor expression cells.
A membrane sample prepared from the cells which expressed the NPY Yl receptor was incubated together with a test compound and [^125I] peptide YY (manufactured by Amersham) (20,000 cpm) in an assay buffer (HBSS buffer (pH 7.4) containing 20 mM HEPES, 0.5% BSA, 1 mM phenylmethylsulfonylfluoride and 0.1% bacitracin) at 25° C. for 2 hours, then filtered through a glass filter GF/C, and washed with 20 mM HEPES buffer (pH 7.4), followed by measuring the radioactivity of the cake on the glass filter with γ counter. Nonspecific binding was measured in the presence of 1 μM peptide YY and a 50% Inhibitory Concentration (IC50) of the test compound against specific [^125I] peptide YY binding was determined [Endocrinology, 131: 2090 (1992)].

[1] = compounds described in Patent Document 7 (WO 97/34873)
[2] = compounds according to the present invention

Sequence of human ERG (hERG) (Q12809 whole entry): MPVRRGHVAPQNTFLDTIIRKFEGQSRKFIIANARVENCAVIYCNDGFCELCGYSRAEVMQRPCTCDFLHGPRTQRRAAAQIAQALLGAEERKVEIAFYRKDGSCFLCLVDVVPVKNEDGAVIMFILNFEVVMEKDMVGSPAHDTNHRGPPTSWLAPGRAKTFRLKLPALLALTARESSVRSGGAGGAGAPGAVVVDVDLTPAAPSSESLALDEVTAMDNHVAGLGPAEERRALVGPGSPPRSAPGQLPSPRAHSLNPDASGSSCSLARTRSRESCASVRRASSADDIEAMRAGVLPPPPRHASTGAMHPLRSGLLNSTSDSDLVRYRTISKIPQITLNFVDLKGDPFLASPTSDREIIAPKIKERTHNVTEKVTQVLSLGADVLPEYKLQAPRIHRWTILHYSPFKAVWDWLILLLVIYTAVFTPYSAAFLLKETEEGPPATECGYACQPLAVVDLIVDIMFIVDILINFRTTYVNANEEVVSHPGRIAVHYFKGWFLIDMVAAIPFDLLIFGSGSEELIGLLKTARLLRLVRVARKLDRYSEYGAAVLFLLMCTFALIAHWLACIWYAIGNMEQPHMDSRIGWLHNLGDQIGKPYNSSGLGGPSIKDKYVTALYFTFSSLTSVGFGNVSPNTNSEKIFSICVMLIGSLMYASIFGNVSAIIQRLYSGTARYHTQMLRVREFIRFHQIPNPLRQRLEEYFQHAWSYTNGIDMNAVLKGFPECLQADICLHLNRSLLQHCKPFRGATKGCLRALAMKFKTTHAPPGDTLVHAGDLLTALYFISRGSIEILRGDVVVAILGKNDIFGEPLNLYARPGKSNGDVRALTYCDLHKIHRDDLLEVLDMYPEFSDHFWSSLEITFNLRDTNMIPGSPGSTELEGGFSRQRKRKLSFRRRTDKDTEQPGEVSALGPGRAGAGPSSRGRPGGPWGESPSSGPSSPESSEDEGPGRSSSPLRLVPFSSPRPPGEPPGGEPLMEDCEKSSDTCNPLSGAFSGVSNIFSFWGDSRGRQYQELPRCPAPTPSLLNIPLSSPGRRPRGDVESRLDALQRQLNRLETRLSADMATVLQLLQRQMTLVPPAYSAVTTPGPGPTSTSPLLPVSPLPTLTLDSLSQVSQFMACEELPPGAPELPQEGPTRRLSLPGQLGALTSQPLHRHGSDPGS

Row | SMILES | Activity for Human ERG (human ERG (hERG); [1]) [µM] | IC50 (human NPY Y1 receptor) [nM] | Activity for Human ERG (human ERG (hERG); [2]) [µM]
1 | CCc1nnc(SCc2cc(N3CCOCC3)cc(NCc3cccc(O)c3)n2)s1 [reference compound] | 0.16 | – | –
2 | CCc1nnc(SCc2cc(N3CCOCC3)cc(NCc3cccc(NC(C)=O)c3)n2)s1 [reference compound] | 0.57 | – | –
3 | Cc1cc(SCc2cc(N3CCC(F)(F)CC3)cc(NCC(F)(F)F)n2)nn1C [Example 9, 4-(4,4-difluoro-1-piperidinyl)-6-{[(1,5-dimethyl-1H-pyrazol-3-yl)thio]methyl}-N-(2,2,2-trifluoroethyl)-2-pyridinamine] | – | 2.2 | 5.3
4 | COC(=O)CNc1cc(N2C3CCC2COC3)cc(CSc2nc(C)c(C)s2)n1 [Example 38, {[6-{[(4,5-dimethyl-1,3-thiazol-2-yl)thio]methyl}-4-(3-oxa-8-azabicyclo[3,2,1]octo-8-yl)-2-pyridinyl]amino}acetic acid methyl ester] | – | 2.8 | 7.4
5 | Cc1nc(SCc2cc(N3CCCCCC3)cc(NCC(F)(F)F)n2)cn1C [Example 13, 4-(1-azepanyl)-6-{[(1,2-dimethyl-1H-imidazol-4-yl)thio]methyl}-N-(2,2,2-trifluoroethyl)-2-pyridinamine] | – | 44 | 8.2
6 | Cc1nc(SCc2cc(N3C4CCC3COC4)cc(NCC#N)n2)sc1C [Example 1] | – | 16 | 33
7 | CCc1oc(CC(O)c2cc(N3C4CCC3COC4)cc(NCC(F)(F)F)n2)nc1C (single isomer, unassigned) [Example 21] | – | 26 | 14
8 | CCc1nnc(SCc2cc(N3CCOCC3)cc(NCc3cccc(OC)c3)n2)s1 [reference compound] | 0.028 | – | –
9 | Cc1cc(CCc2cc(N3CCC(F)(F)CC3)cc(NCC#N)n2)nn1C [Example 32, ({4-(4,4-difluoro-1-piperidinyl)-6-[2-(1,5-dimethyl-1H-pyrazol-3-yl)ethyl]-2-pyridinyl}amino)acetonitrile] | – | 10 | 11
10 | Cc1nc(SCc2cc(N3CCSCC3)cc(NCC#N)n2)n(C)c1C [Example 34, [(4-(4-thiomorpholinyl)-6-{[(1,4,5-trimethyl-1H-imidazol-2-yl)thio]methyl}-2-pyridinyl)amino]acetonitrile] | – | 6.5 | 7.3
11 | O=S1(=O)CCN(c2cc(CSc3nc4c(o3)CCCC4)nc(NCC(F)(F)F)c2)CC1 [Example 12] | – | 27.5 | 14
12 | Cc1nc(SCc2cc(N3CCC(F)(F)CC3)cc(NCCS(C)(=O)=O)n2)oc1C [Example 48, 4-(4,4-difluoro-1-piperidinyl)-6-{[(4,5-dimethyl-1,3-oxazol-2-yl)thio]methyl}-N-[2-(methylsulfonyl)ethyl]-2-pyridinamine] | – | 16 | 5.9
13 | Cc1nc(SCc2cc(N3CCC(F)(F)CC3)cc(NCC(F)(F)F)n2)nn1C [Example 5, 4-(4,4-difluoro-1-piperidinyl)-6-{[(1,5-dimethyl-1H-1,2,4-triazol-3-yl)thio]methyl}-N-(2,2,2-trifluoroethyl)-2-pyridinamine] | – | 17 | 16
